Assay results published in patent US6093729A, “Substituted bicyclic heteroaroylguanidines, a process for their preparation, their use as a medicament or a diagnostic agent, and a medicament containing them” (priority 1994, dated 2000).
Counter-ions that a name gives are not always drawn.

How the values were obtained:
[1] = target: T1, Na^+ /H^+ exchanger of rabbit erythrocytes (Oryctolagus cuniculus, UniProt P23791); assay: Inhibition of the Na^+ /H^+ exchanger of rabbit erythrocytes (amiloride-sensitive sodium influx, flame photometry); assay type: cell-based, rabbit (New Zealand White); details: pH 7.4, 37° C.
T1 construct: determine the Na^+ influx into the erythrocytes; endogenous in cells; host or cells: erythrocytes of cholesterol-fed New Zealand White rabbits (Ivanovas)
T1 sequence (P23791 whole entry): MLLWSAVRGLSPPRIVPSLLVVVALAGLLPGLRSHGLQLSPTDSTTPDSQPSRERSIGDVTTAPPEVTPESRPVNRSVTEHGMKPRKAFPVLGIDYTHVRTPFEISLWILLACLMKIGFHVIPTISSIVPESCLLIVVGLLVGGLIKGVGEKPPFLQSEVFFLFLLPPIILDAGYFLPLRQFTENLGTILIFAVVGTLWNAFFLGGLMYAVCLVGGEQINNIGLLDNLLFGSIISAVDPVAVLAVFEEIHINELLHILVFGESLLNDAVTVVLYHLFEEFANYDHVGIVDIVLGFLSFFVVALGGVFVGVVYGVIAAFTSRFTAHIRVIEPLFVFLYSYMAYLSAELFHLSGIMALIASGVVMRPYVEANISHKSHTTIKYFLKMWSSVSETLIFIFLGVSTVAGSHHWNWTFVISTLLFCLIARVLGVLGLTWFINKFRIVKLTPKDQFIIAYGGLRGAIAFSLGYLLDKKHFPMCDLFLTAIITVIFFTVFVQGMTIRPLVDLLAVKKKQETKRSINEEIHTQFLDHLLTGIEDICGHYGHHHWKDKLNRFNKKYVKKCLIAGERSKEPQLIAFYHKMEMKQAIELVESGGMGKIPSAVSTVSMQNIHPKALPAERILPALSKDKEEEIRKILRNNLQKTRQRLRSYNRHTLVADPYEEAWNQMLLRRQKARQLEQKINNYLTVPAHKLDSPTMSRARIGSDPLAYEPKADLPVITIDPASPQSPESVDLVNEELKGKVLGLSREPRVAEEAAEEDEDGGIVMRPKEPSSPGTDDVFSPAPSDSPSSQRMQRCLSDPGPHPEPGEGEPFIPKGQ
Source text: Inhibition of the Na^+ /H^+ exchanger of rabbit erythrocytes:
New Zealand White rabbits (Ivanovas) were given a standard diet containing 2% cholesterol for six weeks in order to activate Na^+ /H^+ exchange and thus to be able to use flame photometry to determine the Na^+ influx into the erythrocytes via […]. The blood was removed from the aural arteries and rendered incoagulable by the addition of 25 IU of potassium heparin. One part of each sample was used for the duplicate determination of the hematocrit by centrifugation. Aliquots of in each case 100 μl were employed for measuring the initial content of Na^+ in the erythrocytes.
In order to determine the amiloride-sensitive sodium influx, 100 μl of each blood sample were in each case incubated, at pH 7.4 and 37° C., in 5 ml of a hyperosmolar salt/sucrose medium ([…]: 140 NaCl, 3 KCl, 150 sucrose, 0.1 ouabain, 20 tris(hydroxymethyl)aminomethane). The erythrocytes were then washed three times with ice cold MgCl2 /ouabain solution ([…]: 112 MgCl2, 0.1 ouabain) and hemolyzed in 2.0 ml of distilled water. The intracellular content of sodium was determined by flame photometry.
The nett influx of Na^+ was calculated from the difference between the initial sodium values and the sodium content of the erythrocytes following incubation. The amilorideinhibitable sodium influx was given by the difference in the sodium content of the erythrocytes following incubation with and without 3×10-4 mol/l amiloride. The same procedure was also used in the case of the compounds according to the invention.

[2] = test system: rat hearts; details: isolated rat hearts, cited from earlier work
[3] = cited from earlier work

| SMILES | IC50 [1] [µM] | other results |
| --- | --- | --- |
| NC(N)=NC(=O)c1cnc2ccccc2c1 [Example 2, Quinoline-3-carboguanidide Dihydrochloride] | 1.2 | – |
| NC(N)=NC(=O)c1ccc2cnccc2c1 [Example 4, Isoquinoline-6-carboguanidide] | 10 | – |
| NC(N)=NC(=O)c1nc(Cl)c(N)nc1N [amiloride] | – | suppression of artificially induced ventricular fibrillation ([2]; Eur. Heart J. 9 (suppl. 1): 167 (1988)): completely suppress artificially induced ventricular fibrillation; antiarrhythmic effect ([3]; Circulation 79, 1257-63 (1989)): only weakly expressed; accompanying effects undesirable when treating cardiac arrhythmias ([3]; side effects): hypotensive and saluretic effects |
| CCN(c1nc(N)c(C(=O)N=C(N)N)nc1Cl)C(C)C [ethylisopropyl amiloride, Ethylisopropylamiloride] | – | potency relative to amiloride against artificially induced ventricular fibrillation ([2]; compared with amiloride): even more potent than amiloride |

Second part, led by results:

| IC50 [1] [µM] | SMILES | other results |
| --- | --- | --- |
| 2 to 3 | NC(N)=NC(=O)c1ccc2ccccc2n1 [Example 1, Quinoline-2-carboguanidide Dihydrochloride] | – |
| 3 to 5 | NC(N)=NC(=O)c1ccc2ncccc2c1 [Example 3, Quinolin-6-carboguanidide] | – |
| < 1 | Cc1nc2ccc(Cl)cc2cc1C(=O)N=C(N)N [Example 8, 6-Chloro-2-methylquinoline-3-carboguanidide hydrochloride] | – |
